Columns and labels:
Assay in all cases: Eurofins kinase panel
Assay type in all cases: biochemical
Conditions in all cases: read-out: Inhibition rate (%)
CaMKIδ(h) = target: T1, CaMKIδ(h) (Homo sapiens, UniProt Q8IU85)
T1 construct: purchased Eurofins (KinaseProfiler)

ALK1(h) = target: T2, ALK1(h) (Homo sapiens, UniProt P37023)
T2 construct: purchased Eurofins (KinaseProfiler)

MKK6(h) = target: T3, MKK6(h) (Homo sapiens, UniProt P52564)
T3 construct: purchased Eurofins (KinaseProfiler)
T3 sequence (P52564 1-334): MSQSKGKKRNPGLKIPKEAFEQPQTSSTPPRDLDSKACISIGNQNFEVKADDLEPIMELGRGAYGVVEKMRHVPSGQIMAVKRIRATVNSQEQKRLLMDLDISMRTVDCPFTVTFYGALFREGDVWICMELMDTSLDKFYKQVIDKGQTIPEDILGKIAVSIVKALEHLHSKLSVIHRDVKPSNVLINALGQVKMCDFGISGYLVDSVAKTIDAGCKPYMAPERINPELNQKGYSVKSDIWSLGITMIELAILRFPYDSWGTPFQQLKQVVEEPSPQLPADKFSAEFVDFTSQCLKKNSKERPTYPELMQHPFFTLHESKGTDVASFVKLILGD

GRK7(h) = target: T4, GRK7(h) (Homo sapiens, UniProt Q8WTQ7)
T4 construct: purchased Eurofins (KinaseProfiler)
T4 sequence (Q8WTQ7 1-553): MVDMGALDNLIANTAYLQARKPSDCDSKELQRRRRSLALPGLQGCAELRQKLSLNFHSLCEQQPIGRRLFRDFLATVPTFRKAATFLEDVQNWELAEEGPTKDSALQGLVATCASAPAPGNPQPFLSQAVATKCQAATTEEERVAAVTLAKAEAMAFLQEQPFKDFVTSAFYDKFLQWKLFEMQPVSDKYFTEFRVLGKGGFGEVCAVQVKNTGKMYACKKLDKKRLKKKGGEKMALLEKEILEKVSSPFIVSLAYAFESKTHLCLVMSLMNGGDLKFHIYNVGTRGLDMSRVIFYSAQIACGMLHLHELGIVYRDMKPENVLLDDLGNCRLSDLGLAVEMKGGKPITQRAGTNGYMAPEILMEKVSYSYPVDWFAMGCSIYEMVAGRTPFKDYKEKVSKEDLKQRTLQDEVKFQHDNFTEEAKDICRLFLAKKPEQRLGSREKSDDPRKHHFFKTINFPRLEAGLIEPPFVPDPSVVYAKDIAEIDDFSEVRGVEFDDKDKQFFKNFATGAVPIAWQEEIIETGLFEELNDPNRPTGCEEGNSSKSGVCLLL

Src(T341M)(h) = target: T5, Src(T341M)(h) (Homo sapiens, UniProt P12931, T341M)
T5 construct: purchased Eurofins (KinaseProfiler)
T5 sequence (P12931 whole entry T341M): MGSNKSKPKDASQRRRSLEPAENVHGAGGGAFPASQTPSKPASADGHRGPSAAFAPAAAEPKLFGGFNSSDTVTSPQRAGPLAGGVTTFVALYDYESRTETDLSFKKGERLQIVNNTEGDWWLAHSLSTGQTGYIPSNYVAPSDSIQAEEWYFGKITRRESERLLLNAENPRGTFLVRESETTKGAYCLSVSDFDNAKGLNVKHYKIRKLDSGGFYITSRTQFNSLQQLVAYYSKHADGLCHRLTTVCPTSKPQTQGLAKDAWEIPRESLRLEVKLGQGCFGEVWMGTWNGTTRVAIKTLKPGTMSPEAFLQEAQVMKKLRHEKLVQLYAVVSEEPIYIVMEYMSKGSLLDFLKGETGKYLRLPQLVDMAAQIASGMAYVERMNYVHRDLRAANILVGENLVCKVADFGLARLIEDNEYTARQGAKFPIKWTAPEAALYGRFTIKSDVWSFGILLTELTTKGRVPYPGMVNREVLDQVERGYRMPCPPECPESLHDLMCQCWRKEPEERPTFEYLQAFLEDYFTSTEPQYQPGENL

EGFR(L858R)(h) = target: T6, EGFR(L858R)(h) (Homo sapiens, UniProt P00533, L858R)
T6 construct: purchased Eurofins (KinaseProfiler)
T6 sequence (P00533 25-1210 L858R): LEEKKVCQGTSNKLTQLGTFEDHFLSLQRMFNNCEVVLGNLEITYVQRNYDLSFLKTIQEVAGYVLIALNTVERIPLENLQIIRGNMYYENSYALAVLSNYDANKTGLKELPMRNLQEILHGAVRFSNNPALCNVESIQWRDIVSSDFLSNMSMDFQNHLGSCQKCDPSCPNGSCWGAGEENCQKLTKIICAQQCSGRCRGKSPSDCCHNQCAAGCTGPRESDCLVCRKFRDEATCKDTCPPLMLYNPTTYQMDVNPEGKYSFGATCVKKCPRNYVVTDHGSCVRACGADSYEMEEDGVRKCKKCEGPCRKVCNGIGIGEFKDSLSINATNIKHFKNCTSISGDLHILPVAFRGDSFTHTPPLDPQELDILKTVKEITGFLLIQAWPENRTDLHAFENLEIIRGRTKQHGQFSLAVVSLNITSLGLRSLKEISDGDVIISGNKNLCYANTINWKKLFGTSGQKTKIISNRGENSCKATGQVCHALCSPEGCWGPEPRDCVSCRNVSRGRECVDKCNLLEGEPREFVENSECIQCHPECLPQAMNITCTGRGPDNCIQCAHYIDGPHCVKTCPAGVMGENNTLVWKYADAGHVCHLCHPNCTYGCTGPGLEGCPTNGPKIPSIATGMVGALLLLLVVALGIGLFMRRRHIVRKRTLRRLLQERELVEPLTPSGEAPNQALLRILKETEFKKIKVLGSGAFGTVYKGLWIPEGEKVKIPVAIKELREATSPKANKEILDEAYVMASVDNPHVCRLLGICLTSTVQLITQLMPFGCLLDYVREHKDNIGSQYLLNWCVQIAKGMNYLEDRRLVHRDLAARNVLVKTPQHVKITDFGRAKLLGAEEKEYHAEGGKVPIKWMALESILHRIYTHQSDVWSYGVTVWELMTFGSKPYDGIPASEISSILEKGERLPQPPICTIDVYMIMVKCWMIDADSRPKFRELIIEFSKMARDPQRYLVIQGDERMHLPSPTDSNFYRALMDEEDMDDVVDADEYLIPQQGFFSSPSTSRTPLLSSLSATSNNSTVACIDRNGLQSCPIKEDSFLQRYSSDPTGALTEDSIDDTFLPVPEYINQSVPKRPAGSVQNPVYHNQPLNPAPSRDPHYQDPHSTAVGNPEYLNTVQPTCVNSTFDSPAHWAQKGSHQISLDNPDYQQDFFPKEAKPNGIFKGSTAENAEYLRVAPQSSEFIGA

CDK5/p25(h) = target: T7, CDK5/p25(h) (Homo sapiens, UniProt Q00535)
T7 construct: purchased Eurofins (KinaseProfiler)

PKBβ(h) = target: T8, PKBβ(h) (Homo sapiens, UniProt P31751)
T8 construct: purchased Eurofins (KinaseProfiler)
T8 sequence (P31751 whole entry): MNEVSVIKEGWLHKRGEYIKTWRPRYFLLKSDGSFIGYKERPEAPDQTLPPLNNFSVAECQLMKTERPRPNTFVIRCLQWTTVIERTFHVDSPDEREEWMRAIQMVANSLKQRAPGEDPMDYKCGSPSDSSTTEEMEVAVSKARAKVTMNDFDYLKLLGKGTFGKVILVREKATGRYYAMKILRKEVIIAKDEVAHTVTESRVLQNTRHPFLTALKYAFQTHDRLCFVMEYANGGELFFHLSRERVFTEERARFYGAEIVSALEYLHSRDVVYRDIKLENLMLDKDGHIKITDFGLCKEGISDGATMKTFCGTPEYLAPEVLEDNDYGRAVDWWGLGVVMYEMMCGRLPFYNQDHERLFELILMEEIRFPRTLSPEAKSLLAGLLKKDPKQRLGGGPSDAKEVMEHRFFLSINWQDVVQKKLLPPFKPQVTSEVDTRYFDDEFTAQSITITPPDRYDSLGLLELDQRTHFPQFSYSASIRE

MLK1(h) = target: T9, MLK1(h) (Homo sapiens, UniProt P80192)
T9 construct: purchased Eurofins (KinaseProfiler)
T9 sequence (P80192 whole entry): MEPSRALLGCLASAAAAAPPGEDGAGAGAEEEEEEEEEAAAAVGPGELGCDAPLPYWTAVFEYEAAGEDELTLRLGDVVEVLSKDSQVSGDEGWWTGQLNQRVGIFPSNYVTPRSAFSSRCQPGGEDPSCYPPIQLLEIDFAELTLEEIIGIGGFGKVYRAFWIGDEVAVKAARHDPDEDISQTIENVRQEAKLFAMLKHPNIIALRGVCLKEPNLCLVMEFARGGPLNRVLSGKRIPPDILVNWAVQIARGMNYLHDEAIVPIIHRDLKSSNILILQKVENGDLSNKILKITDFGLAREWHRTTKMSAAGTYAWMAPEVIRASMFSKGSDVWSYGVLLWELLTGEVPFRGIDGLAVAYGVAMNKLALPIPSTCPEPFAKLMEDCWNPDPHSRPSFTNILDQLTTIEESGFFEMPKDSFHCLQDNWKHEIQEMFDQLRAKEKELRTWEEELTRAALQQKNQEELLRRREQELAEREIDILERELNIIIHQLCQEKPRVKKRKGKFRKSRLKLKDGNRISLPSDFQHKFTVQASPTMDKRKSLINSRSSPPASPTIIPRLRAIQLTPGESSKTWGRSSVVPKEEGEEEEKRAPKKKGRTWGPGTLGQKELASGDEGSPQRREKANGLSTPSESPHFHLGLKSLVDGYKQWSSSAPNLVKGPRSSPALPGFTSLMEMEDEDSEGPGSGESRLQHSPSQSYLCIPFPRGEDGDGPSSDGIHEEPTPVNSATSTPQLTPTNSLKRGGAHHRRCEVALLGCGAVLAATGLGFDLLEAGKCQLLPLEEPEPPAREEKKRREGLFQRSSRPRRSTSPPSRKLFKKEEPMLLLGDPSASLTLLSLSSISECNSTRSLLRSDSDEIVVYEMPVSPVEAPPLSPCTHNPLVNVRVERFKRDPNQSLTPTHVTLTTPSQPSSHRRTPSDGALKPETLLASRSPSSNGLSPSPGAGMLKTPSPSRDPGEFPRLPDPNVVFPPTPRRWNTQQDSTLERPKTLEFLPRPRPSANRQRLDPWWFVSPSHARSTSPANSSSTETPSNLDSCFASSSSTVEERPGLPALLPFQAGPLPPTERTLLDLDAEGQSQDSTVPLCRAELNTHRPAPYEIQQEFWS

CaMKIIβ(h) = target: T10, CaMKIIβ(h) (Homo sapiens, UniProt Q13554)
T10 construct: purchased Eurofins (KinaseProfiler)

DDR1(h) = target: T11, DDR1(h) (Homo sapiens, UniProt Q08345)
T11 construct: purchased Eurofins (KinaseProfiler)
T11 sequence (Q08345 19-913): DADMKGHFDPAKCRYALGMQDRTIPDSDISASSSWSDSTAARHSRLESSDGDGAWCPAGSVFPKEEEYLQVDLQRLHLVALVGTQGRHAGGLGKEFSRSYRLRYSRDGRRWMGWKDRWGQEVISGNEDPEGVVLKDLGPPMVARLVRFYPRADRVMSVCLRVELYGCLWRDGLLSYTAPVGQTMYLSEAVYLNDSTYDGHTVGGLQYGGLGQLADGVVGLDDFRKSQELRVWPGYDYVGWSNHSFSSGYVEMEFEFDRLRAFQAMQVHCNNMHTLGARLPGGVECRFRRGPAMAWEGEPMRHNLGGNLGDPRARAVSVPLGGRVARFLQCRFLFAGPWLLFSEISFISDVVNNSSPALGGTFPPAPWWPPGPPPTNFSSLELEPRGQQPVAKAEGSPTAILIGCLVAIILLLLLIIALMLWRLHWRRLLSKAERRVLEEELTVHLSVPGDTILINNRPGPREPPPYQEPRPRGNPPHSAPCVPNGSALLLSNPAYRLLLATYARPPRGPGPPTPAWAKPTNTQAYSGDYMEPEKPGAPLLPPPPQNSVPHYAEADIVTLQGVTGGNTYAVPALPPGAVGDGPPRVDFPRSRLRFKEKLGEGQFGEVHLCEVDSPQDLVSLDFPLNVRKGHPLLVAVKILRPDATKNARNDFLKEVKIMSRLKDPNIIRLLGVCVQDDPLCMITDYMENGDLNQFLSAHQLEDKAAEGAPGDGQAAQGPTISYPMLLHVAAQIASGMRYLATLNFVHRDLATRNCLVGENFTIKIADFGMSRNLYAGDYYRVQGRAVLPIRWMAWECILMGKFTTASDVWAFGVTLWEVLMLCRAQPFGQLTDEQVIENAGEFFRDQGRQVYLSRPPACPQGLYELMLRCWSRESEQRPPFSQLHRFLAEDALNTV

IRAK4(h) = target: T12, IRAK4(h) (Homo sapiens, UniProt Q9NWZ3)
T12 construct: purchased Eurofins (KinaseProfiler)
T12 sequence (Q9NWZ3 1-460): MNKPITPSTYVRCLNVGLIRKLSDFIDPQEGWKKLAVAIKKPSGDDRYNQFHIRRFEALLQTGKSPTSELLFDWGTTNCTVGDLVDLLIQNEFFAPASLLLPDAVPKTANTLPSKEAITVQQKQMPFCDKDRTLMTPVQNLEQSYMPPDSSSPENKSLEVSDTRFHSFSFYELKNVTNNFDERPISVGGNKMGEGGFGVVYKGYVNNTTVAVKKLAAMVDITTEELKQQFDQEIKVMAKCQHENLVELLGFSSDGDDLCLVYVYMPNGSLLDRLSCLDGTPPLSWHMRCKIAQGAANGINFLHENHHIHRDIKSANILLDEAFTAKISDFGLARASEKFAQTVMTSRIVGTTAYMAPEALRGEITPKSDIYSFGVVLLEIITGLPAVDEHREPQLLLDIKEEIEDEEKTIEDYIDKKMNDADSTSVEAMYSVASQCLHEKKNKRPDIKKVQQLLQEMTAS

T1 sequence (Q8IU85 whole entry): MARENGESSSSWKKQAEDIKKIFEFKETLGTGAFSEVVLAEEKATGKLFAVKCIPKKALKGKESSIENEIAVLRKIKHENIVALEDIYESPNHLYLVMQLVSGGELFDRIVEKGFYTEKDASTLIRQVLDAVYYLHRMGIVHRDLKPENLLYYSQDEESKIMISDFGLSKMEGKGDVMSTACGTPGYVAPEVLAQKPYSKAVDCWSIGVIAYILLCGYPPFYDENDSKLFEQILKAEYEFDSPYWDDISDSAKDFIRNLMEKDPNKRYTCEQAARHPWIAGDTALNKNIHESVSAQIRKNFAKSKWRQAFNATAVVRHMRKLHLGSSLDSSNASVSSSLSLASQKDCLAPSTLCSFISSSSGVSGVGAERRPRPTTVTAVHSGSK
T2 sequence (P37023 22-503): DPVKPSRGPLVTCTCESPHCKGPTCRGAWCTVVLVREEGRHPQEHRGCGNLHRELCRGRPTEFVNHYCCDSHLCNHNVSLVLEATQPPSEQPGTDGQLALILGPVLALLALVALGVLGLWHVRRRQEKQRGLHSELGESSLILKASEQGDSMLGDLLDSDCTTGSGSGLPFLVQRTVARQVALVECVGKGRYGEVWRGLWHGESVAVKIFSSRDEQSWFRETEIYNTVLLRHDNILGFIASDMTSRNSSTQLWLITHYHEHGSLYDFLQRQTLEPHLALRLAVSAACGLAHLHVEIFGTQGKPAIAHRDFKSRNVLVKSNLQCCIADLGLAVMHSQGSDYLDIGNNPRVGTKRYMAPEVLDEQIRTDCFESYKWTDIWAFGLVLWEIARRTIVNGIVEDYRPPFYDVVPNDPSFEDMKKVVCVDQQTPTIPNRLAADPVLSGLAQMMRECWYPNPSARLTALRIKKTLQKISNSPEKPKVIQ

For `COc1cc(OC)c(Cl)c(-c2ccc3c(NC(=O)c4ccc(N5CCNC(C)(C)C5)cc4)n[nH]c3n2)c1Cl` [3D185], which inhibition at 0.01 µM (CaMKIδ(h); 10 nM) is on record?
Its inhibition at 0.01 µM is 0%.

And the inhibition at 0.1 µM (CaMKIδ(h); 100 nM)?
The inhibition at 0.1 µM was 23%.

What about the inhibition at 1 µM (CaMKIδ(h); 1000 nM) of the same molecule?
The inhibition at 1 µM was 76%.

And the inhibition at 0.01 µM (ALK1(h); 10 nM)?
Its inhibition at 0.01 µM is 3%.

And the inhibition at 0.1 µM (ALK1(h); 100 nM)?
The inhibition at 0.1 µM was -7%.

What about the inhibition at 1 µM (ALK1(h); 1000 nM) of the same molecule?
Its inhibition at 1 µM is -1%.

And the inhibition at 0.01 µM (MKK6(h); 10 nM)?
The inhibition at 0.01 µM was 11%.

And the inhibition at 0.1 µM (MKK6(h); 100 nM)?
The inhibition at 0.1 µM was 0%.

What about the inhibition at 1 µM (MKK6(h); 1000 nM) of the same molecule?
Its inhibition at 1 µM is 2%.

What about the inhibition at 0.01 µM (GRK7(h); 10 nM) of the same molecule?
Its inhibition at 0.01 µM is 9%.

What about the inhibition at 0.1 µM (GRK7(h); 100 nM) of the same molecule?
Its inhibition at 0.1 µM is 16%.

What about the inhibition at 1 µM (GRK7(h); 1000 nM) of the same molecule?
The inhibition at 1 µM was 27%.

What about the inhibition at 0.01 µM (Src(T341M)(h); 10 nM) of the same molecule?
Its inhibition at 0.01 µM is 8%.

What about the inhibition at 0.1 µM (Src(T341M)(h); 100 nM) of the same molecule?
Its inhibition at 0.1 µM is 33%.

What about the inhibition at 1 µM (Src(T341M)(h); 1000 nM) of the same molecule?
The inhibition at 1 µM was 88%.

And the inhibition at 0.01 µM (EGFR(L858R)(h); 10 nM)?
Its inhibition at 0.01 µM is 1%.

And the inhibition at 0.1 µM (EGFR(L858R)(h); 100 nM)?
The inhibition at 0.1 µM was 9%.

What about the inhibition at 1 µM (EGFR(L858R)(h); 1000 nM) of the same molecule?
The inhibition at 1 µM was 30%.

What about the inhibition at 0.01 µM (CDK5/p25(h); 10 nM) of the same molecule?
The inhibition at 0.01 µM was 10%.

What about the inhibition at 0.1 µM (CDK5/p25(h); 100 nM) of the same molecule?
Its inhibition at 0.1 µM is 4%.

What about the inhibition at 1 µM (CDK5/p25(h); 1000 nM) of the same molecule?
The inhibition at 1 µM was 3%.

And the inhibition at 0.01 µM (PKBβ(h); 10 nM)?
The inhibition at 0.01 µM was 15%.

And the inhibition at 0.1 µM (PKBβ(h); 100 nM)?
Its inhibition at 0.1 µM is 29%.

What about the inhibition at 1 µM (PKBβ(h); 1000 nM) of the same molecule?
The inhibition at 1 µM was 30%.

What about the inhibition at 0.01 µM (MLK1(h); 10 nM) of the same molecule?
Its inhibition at 0.01 µM is -9%.

What about the inhibition at 0.1 µM (MLK1(h); 100 nM) of the same molecule?
Its inhibition at 0.1 µM is -1%.

And the inhibition at 1 µM (MLK1(h); 1000 nM)?
The inhibition at 1 µM was 26%.

What about the inhibition at 0.01 µM (CaMKIIβ(h); 10 nM) of the same molecule?
Its inhibition at 0.01 µM is -1%.

What about the inhibition at 0.1 µM (CaMKIIβ(h); 100 nM) of the same molecule?
Its inhibition at 0.1 µM is -3%.

What about the inhibition at 1 µM (CaMKIIβ(h); 1000 nM) of the same molecule?
The inhibition at 1 µM was -4%.

And the inhibition at 0.01 µM (DDR1(h); 10 nM)?
Its inhibition at 0.01 µM is 6%.

And the inhibition at 0.1 µM (DDR1(h); 100 nM)?
The inhibition at 0.1 µM was 27%.

And the inhibition at 1 µM (DDR1(h); 1000 nM)?
The inhibition at 1 µM was 64%.

And the inhibition at 0.01 µM (IRAK4(h); 10 nM)?
Its inhibition at 0.01 µM is -2%.

And the inhibition at 0.1 µM (IRAK4(h); 100 nM)?
The inhibition at 0.1 µM was -2%.

What about the inhibition at 1 µM (IRAK4(h); 1000 nM) of the same molecule?
The inhibition at 1 µM was -4%.

Reference: PMC6704710, “Preclinical evaluation of 3D185, a novel potent inhibitor of FGFR1/2/3 and CSF-1R, in FGFR-dependent and macrophage-dominant cancer models” (Journal of Experimental & Clinical Cancer Research : CR, 2019)
